In PubChem BioAssay AID1598:
pEC50: −log10 of the molar value. Results filed as inconclusive are left out.

test system: SMN2 vs SMN1 luciferase splicing reporter cells; assay: selective SMN2 exon splicing luciferase activators – cell-based, SMN2/SMN1 luciferase reporters (AID 1598); details: measured here: SMN luciferase EC50 follow-up

In order of falling pEC50:
1. NC12CC3CC(CC(C3)C1)C2  6.40
2. CC(C(=O)O)c1ccc(N2Cc3ccccc3C2=O)cc1 (configuration not stated)  6.22
3. O[N+]1=CC=CCC1=S.On1ccccc1=S.[Zn]  5.90
4. CO[C@@]1(NC(=O)Cc2cccs2)C(=O)N2C(C(=O)O)=C(COC(N)=O)CS[C@@H]21  5.60
5. CC[C@@]1(O)C(=O)OCc2c1cc1n(c2=O)Cc2cc3ccccc3nc2-1  5.60
6. O=C1C=C2C(=CCOC2O)O1 (configuration not stated)  5.30
7. CC[C@@]1(O)C[C@H](OC2CC(N(C)C)C(OC3CC(O)C(OC4CCC(=O)C(C)O4)C(C)O3)C(C)O2)c2c(cc3c(c2O)C(=O)c2c(O)cccc2C3=O)[C@H]1C(=O)OC (some centres not stated)  5.15
